Test results reported in patent US9376382B2, “N-substituted isopropyldimethyl azulene sulfonamide derivatives, and preparation method and use thereof” (Sichuan Guokang Pharmaceutical Co., Ltd., priority 2011, dated 2016).
“Also recorded” adds a separate entry of the source.

How the values were obtained:
[1] = High-temperature test (60° C.), stability study; type: physicochemical; settings: open-stored; for Appearance Day 5: Day 5, cell wraps; for Appearance Day 5 / Appearance Day 10: first line given; for Appearance Day 10: Day 10, cell wraps;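 on all read-outs here: samples kept uncovered in dishes at 60 °C for up to 10 days and examined on Day 5 and Day 10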
Method: (§1) The test samples were open-stored in culture dishes at 60° C. for 10 days, and taken and detected on Day 5 and Day 10. • The characteristics, especially colour change were observed. • Melting points were measured by automatic melting point apparatus. • By self-reflection, TLC is used to observe whether the spot numbers were increased after 5 days and 10 days.

[2] = High humidity test (25° C., relative humidity 90% ± 5%), stability study; type: physicochemical; settings: RH 90% ± 5%; for Appearance Day 0: Day 0, cell wraps; for Appearance Day 0 / Appearance Day 5 / Appearance Day 10: first line given; for Appearance Day 5: Day 5, cell wraps; for Appearance Day 10: Day 10, cell wraps;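 on all read-outs here: samples kept uncovered in sealed humidity desiccators, appearance judged mainly by colour change, melting point on an automatic apparatus, TLC checked for extra spots versus start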
Method: (§2) The test samples were open-stored in closed constant humidity desiccators under the condition of 25° C. and relative humidity of 90%+5% for 10 days, and taken and detected on Day 5 and Day 10. Meanwhile, each sample was accurately weighed before and after test.
The characteristics, especially colour change was observed.
Melting points were measured by an automatic melting point apparatus.
By self-reflection, TLC is used to observe whether the spot numbers were increased after 5 days and 10 days.

[3] = Intense light irradiation test (4500LX ± 500LX), stability study; type: physicochemical; settings: for Appearance Day 0: Day 0, cell wraps; for Appearance Day 0 / Appearance Day 5 / Appearance Day 10: first line given; for Appearance Day 5: Day 5, cell wraps; for Appearance Day 10: Day 10, cell wraps
Method: (§3) The test samples were open-stored in “adjustable light boxes” under the conditions of illumination of 4500LX±500LX for 10 days, and taken and detected on Day 5 and Day 10 with regards to dry items. • The characteristics, especially colour change was observed. • Melting points were measured by an automatic melting point apparatus. • By self-reflection, TLC is used to observe whether the spot numbers were increased after 5 days and 10 days.

[4] = system: ethanol-induced gastric ulcer; test: Anhydrous ethanol-induced gastric ulcer in mice; type: in vivo, Kunming mice; set-up: key to Gastri ulcer score (X ± SD) / Ulcer score (X ± SD) / Gastric ulcer score (X ± SD): summed pathology score: congestion 1, hemorrhage/erosion 1, linear erosion 3; settings: for Inhibition rate (%): inhibition rate of ulcer vs model group; for anti-gastric ulcer effect in words: ethanol-induced gastric ulcer in mice, compared to the model group
Summary of the method: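 Kunming mice (18-22 g, both sexes, n=8/group) dosed intragastrically once daily for 5 days at 0.4 ml/20 g in 0.5% CMC; 0.5 h after last dose, 0.5 ml anhydrous ethanol given orally.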

[5] = Stability studies (light, humidity, heat), overall comparison; settings: summary of high-temperature, high humidity and intense light tests
Method: as §1, §2, §3

[6] = Stability of the purified compound in the air; type: physicochemical
[7] = Table 5 data, relative increase

Row | Melting point Day 0 [1] | Spot numbers on TLC Day 0 [1] | Melting point Day 5 [1] | Spot numbers on TLC Day 5 [1] | Appearance Day 5 [1] | Melting point Day 10 [1] | Spot numbers on TLC Day 10 [1] | Appearance Day 10 [1] | Melting point Day 0 [2] | Spot numbers on TLC Day 0 [2] | hygroscopic rate (%) Day 0 [2] | Appearance Day 0 [2] | Melting point Day 5 [2] | Spot numbers on TLC Day 5 [2] | hygroscopic rate (%) Day 5 [2] | Appearance Day 5 [2] | Melting point Day 10 [2] | Spot numbers on TLC Day 10 [2] | Appearance Day 10 [2] | Melting point Day 0 [3] | Compound | also measured
1 | 107.5-108.5 °C | 1 | 107.0-108.5 °C | 1 | purple | 107.0-108.5 °C | 1 | purple | 108.5-109.0 °C | 1 | 1.89% | purple | 108.5-109.5 °C | 1 | 2.35% | purple | 107.5-108.5 °C | 1 | purple | 107.5-108.5 °C | Cc1cc(S(=O)(=O)NC2CCCCC2)c2c(C)ccc(C(C)C)cc1-2 [4i, N-cyclohexyl-3,8-dimethyl-5-isopropyl-1-azulene sulfonamide] | Spot numbers on TLC Day 0 [3]: 1; Appearance Day 0 [3]: purple; Melting point Day 5 [3]: 107.5-108.5 °C; Spot numbers on TLC Day 5 [3]: 1; Appearance Day 5 [3]: purple; Spot numbers on TLC Day 10 ([3]; Day 10): 1; Appearance Day 10 [3]: purple; Inhibition rate (%) ([4]; Table 4): 50.92%; Gastri ulcer score (X ± SD) ([4]; Table 4, mice, intragastric once a day for five days, dose equimolar to azulene sulfonate sodium 3.0 mg/kg (Omeprazole 13.4 mg/kg), model group 13.00 ± 1.77): 6.38 ± 3.85; anti-gastric ulcer effect in words [4]: significantly relieve the pathological degree; melting point: 108 to 109 °C; light, humidity and heat stability in words [5]: better light, humidity and heat stability than azulene sulfonate sodium
2 | 87.5-89.0 °C | 1 | 88.0-89.0 °C | 1 | purple | 88.0-89.0 °C | 1 | purple | 87.5-89.0 °C | 1 | 1.09% | purple | 87.5-89.5 °C | 1 | 1.81% | purple | 87.5-89.5 °C | 1 | purple | 87.5-89.0 °C | Cc1cc(S(=O)(=O)Nc2ccc(N)cc2)c2c(C)ccc(C(C)C)cc1-2 [4l, N-(4-aminophenyl)-3,8-dimethyl-5-isopropyl-1-azulene sulfonamide] | Spot numbers on TLC Day 0 [3]: 1; Appearance Day 0 [3]: purple; Melting point Day 5 [3]: 87.5-89.0 °C; Spot numbers on TLC Day 5 [3]: 1; Appearance Day 5 [3]: purple; Melting point Day 10 ([3]; Day 10): 87.5-89.5 °C; Spot numbers on TLC Day 10 ([3]; Day 10): 1; Appearance Day 10 [3]: purple; Inhibition rate (%) ([4]; Table 5): 45.20%; Ulcer score (X ± SD) ([4]; Table 5, mice, intragastric once a day for five days, equimolar doses, model group 20.33 ± 12.23): 11.14 ± 6.41; increase of inhibition rate compared to Omeprazole [4, 7]: 23%; increase of inhibition rate compared to azulene sulfonate sodium [4, 7]: 38%; anti-gastric ulcer effect in words [4]: significantly relieve the pathological degree; also recorded: better therapeutic effect on gastric ulcer than azulene sulfonate sodium and omeprazole; melting point: 88 to 90 °C; light, humidity and heat stability in words [5]: better light, humidity and heat stability than azulene sulfonate sodium
3 |  |  |  |  |  |  |  |  |  |  |  |  |  |  |  |  |  |  |  |  | Cc1cc(S(=O)(=O)NN)c2c(C)ccc(C(C)C)cc1-2 [4m, N-amino-3,8-dimethyl-5-isopropyl-1-azulene sulfonamide] | stability in the air [6]: deteriorated soon in the air and had a very poor stability
